The source of these data is US6716436B1, “Cosmetic composition for slimming containing L-arginine, an L-arginine analogue, or one of their derivatives, for topical application” (Exsymol S.A.M., priority 1999, dated 2004).

The structures appear in SMILES notation. Like-named read-outs stand apart in the source and are kept apart here.

Data set [1] in a line: Comparative study of cutaneous diffusion (diffusion cell). To be noted: solution at 30 mM, 0.2 ml by cm^2 on hairless rat skin; L-arginine dosed by HPLC in dialysate.
Protocol: (§1) Hairless rats are sacrified by intra-cardiac injection of pentobarbital; the ventral skin is recollected and hypodermis is removed with a scalpel. 0.2 ml by cm^2 of the solution to be tested are dropped on a piece of skin (dermis and epidermis) which is set on a diffusion cell. The diffusion is tested in comparison with phosphate buffer containing 0.5% of tween 20.
(§2) At different times, the phosphate buffer is replaced and L-arginine is dosed by HPLC in the recollected dialysate fractions.
Data set [2] concerns rats ZUCKER fa/fa. As to the kind of experiment: Test in vivo on rats (weight and measurement over 5 weeks). To be noted: group II ionisation every two days. An excerpt:
Three groups of 4 rats ZUCKER fa/fa defined in an homogeneous way were placed in the animal house at 8 weeks. The experiment begins when the rats have reached 9 weeks and similar weights (240±15 g); they are placed in individual cage with water and food ad libidum. The whole of the rats are circularly hair removed on median part in order to tattoo an axis between the neck and the tail. On a group N^o I, the emulsion described in example 1 is daily applied on the hair-removed part until absorption with removing the excess. […] A third group is used as the control (group C). These experiments are carried out during 5 weeks.

Data set [3] concerns Segments of perirenal adipose tissue. Put plainly: Lipolytic activity in vitro (glycerol liberation). The following applies: rabbit perirenal adipose tissue, 37° C. The format is cell-based, male rabbits. How it is done: The in vitro lipolytic activity of solutions containing compounds according to the invention is tested (Solutions at 4%).
Segments of perirenal adipose tissue of male rabbits are incubed in a Krebs-Ringer bicarbonate buffer pH 7.4, which contains 5,5 mM glucose, 40 mg/ml of bovin albumin serum. The total volume of incubation is 3 ml with the substance to be tested prepared in 0.01 M of NH4HCO3 and additionned in a volume of 0.1 ml. The preparations are stirred at 37° C., under a 95% O2, 5% CO2 atmosphere.
The lipolytic activity levels are quantified by glycerol liberation in the incubation medium and are expressed by gramme of lipid. The glycerol is dosed in duplicate by enzymatic method: glycerokinase, glycerophosphate deshydrogenase (Boerhinger-Mannheim), method of Wieland (32), modified by Vaughan (33).

For data set [4] the following is noted: hairless, rat, 30 mM.
Protocol: as §1, §2

With `CC(C)(C)C(=O)OCOC(=O)[C@@H](N)CCCNC(=N)N` [L-arginylpivalloyoxymethylester], in data set [1], the “% of diffusion after 5h” value is 51%.

In the case of `N=C(N)NCCC[C@H](N)C(=O)O.O=C(O)c1ccccc1O` [Group II, arginium salicylate], the Meas in data set [2] (Week 1, group I daily topical) was determined as 189.75 mm; in data set [2] (Week 2, group I daily topical), 213.25 mm; in data set [2] (Week 3, group I daily topical), 224.25 mm; in data set [2] (Week 4, group I daily topical), 233.25 mm; in data set [2] (Week 5, group I daily topical), 238.5 mm. This compound also registered a Weight in data set [2] (Week 1, group I daily topical) of 280.25 g. In addition, the Weights in data set [2] (Week 2, group I daily topical) worked out at 318.25 g; in data set [2] (Week 3, group I daily topical), 345.5 g; in data set [2] (Week 4, group I daily topical), 367.25 g; in data set [2] (Week 5, group I daily topical), 386.25 g.

Take `C[Si](O)(O)OC(=O)C(N)CCCNC(=N)N` [Monomethylsilanediol of L-arginine]: the Glycerol in data set [3] (15 mg/L) is given as 1 ± 0.5 nmoles/g of lipids; in data set [3] (30 mg/L), 2.40 ± 0.35 nmoles/g of lipids; in data set [3] (45 mg/L), 2.5 ± 0.35 nmoles/g of lipids. For the same compound, the “% of diffusion after 5h” value in data set [4] was determined as 42%.
